Data set [1] concerns patient with chronic progressive multiple sclerosis. It is filed as in vivo. An excerpt: (§1) Currently, they are diagnosed with chronic-progressive multiple sclerosis. They are afflicted with visual impairments, chronic fatigue, difficulty with speech articulation, tremors in the right and left hands, decreased fine motor movement in the right greater than left hands and decreased motor strength in their lower extremities. They are without weight bearing and is confined to a wheelchair. When asked what their major barriers are as far as functional abilities on a day to day basis, they place fatigue at the top of their impairment list followed by speech difficulties and decreased fine motor movement of their hands. They experienced marked spasticity of their lower extremities with the progression of their neurological condition over the course of several years and eventually resorted to a baclofen pump which was implanted in 1997. […] They receive 85 micrograms of baclofen per day.

Data set [2] has the same test system. Description: Case, chronic progressive multiple sclerosis, citicoline response (Example 13). It counts as in vivo, human.
From the text: as §1

For data set [3], the system named is patients suffering from ALS. Description: Double-blind study against placebo in ALS, survival (Example 8). It counts as in vivo, human. How it is done:
A double-blind study against placebo is performed as follows: 77 patients suffering from ALS are treated with 500 mg each citicoline by injection (monosodium salt dissolved in 10 ml sterile isotonic solution of sodium chloride) or be a solid tablet or soft gel capsule orally and administered daily, for a period of 12 to 18 months, and 78 patients receive a placebo. The results obtained are analyzed in terms of survival in the study, it being understood that “study drop-outs” (departures from the study) include individuals who actually die, and also individuals whose clinical state necessitates a tracheotomy or transfer to assisted ventilation.

For data set [4], the system named is experimental autoimmune encephalomyelitis. Briefly: EAE prevention therapy, daily functional score (Example 2). It counts as in vivo, female Lewis rats. To be noted: score 0 to 4. The method, then:
Thirty-two female Lewis rats are divided into four groups of eight each and on day one administered saline, citicoline (500 or 1000 mg/kg, i.p.), or dexamethasone (0.0375 mg/kg), respectively. Dexamethasone acts as a positive control through its ability to suppress immune function. […] Therapy is continued daily. […] Numerical values are averages of the functional scores in each treatment group from Days 14-21 of the study.

In data set [5] the test system is patients with chronic multiple sclerosis. Description: Human study in chronic multiple sclerosis, EDSS and SNRS (Example 6). It counts as in vivo. To be noted: 250, 500, or 1,000 mg each patient each day orally or intravenously for six months; eight patients. The method, then:
A study of two sets of four patients each with chronic multiple sclerosis is undertaken. Each patient is first examined for normal hepatic, renal, and bone marrow functioning to establish baseline values. Each of the patients in each group is then treated either with citicoline dissolved in sterile preservative-free isotonic saline 10% or oral tablet or capsule. The citicoline is administered orally or intravenously at a dosage of 250, 500, or 1,000 mg each patient each day for six months. Patients are examined on a daily basis. During the treatment period, daily blood counts and twice weekly blood chemistries are performed on each patient. The neurologic function of each of these patients is measured using the expanded Krutzke disability status scale (EDSS), and the Scripps neurologic rating scale (SNRS).

For data set [6], the system named is patients with bulbar palsy caused by ALS. Briefly: Human study in bulbar palsy caused by ALS (Example 7). It is filed as in vivo. Conditions: 500-1000 mg citicoline daily. How it is done: Six patients with bulbar palsy caused by ALS are treated with 500-1000 mg each citicoline by injection (monosodium salt dissolved in 10 ml sterile isotonic solution of sodium chloride) or by a solid tablet or soft gel capsule orally and administered daily.

Data set [7] concerns patients. Description: Observed tolerance of citicoline in patients. It is filed as in vivo, human. Conditions: doses about 250 mg to about 2000 mg for several weeks to several years. From the text: Dosages may be varied over time depending on the severity of symptoms, individual patient tolerance, route of administration and response to treatment. Treatment may be continued indefinitely if needed and if tolerated well.

[8] abbreviates: patient history since around 1986.
Where [9] appears, read: citicoline 500 mg/kg i.p. daily from day one.
Setting [10] is: citicoline 1000 mg/kg i.p. daily from day one.
[11] abbreviates: dexamethasone 0.0375 mg/kg daily from day one.

Where two headings read alike, the source gives them in different places.

For the compound `Cn1cnc([N+](=O)[O-])c1Sc1ncnc2[nH]cnc12` [Imuran], the “effect of earlier treatment on multiple sclerosis” value (from here on “effect of earlier treatment”) in data set [1] (in vivo) is reported as “no effect”.
As to `O=P1(N(CCCl)CCCl)NCCCO1` (stereo not drawn) [Cytoxan], in data set [1] (setting [8]), the “course of earlier treatment, tolerability” value is “discontinued due to adverse events”.
Regarding `C[C@]12C=CC(=O)C=C1CC[C@@H]1[C@@H]2C(=O)C[C@@]2(C)[C@H]1CC[C@]2(O)C(=O)CO` [Prednisone], in data set [1] (setting [8]), the “effect of earlier treatment” value is recorded as “worked initially”.
In the case of `NCC(CC(=O)O)c1ccc(Cl)cc1` (stereo not drawn) [baclofen], in data set [1] (baclofen pump, 85 micrograms per day), the “ability to bear weight on lower extremities” value is “lessened their ability to bear weight on their lower extremities”. Besides, the “spasticity in lower extremities” value in data set [1] (baclofen pump, continuous infusion into spinal fluid, 85 micrograms per day) is recorded as “reduced the spasticity considerably”.
Consider `Nc1nc(Cl)nc2c1ncn2[C@H]1C[C@H](O)[C@@H](CO)O1` [Cladribine], for which the “effect of earlier treatment” value in data set [1] (setting [8]) is given as “no effect”.
For `C[N+](C)(C)CCOP(=O)(O)OP(=O)([O-])OC[C@H]1O[C@@H](n2ccc(N)nc2=O)[C@H](O)[C@@H]1O` [citicoline, cytidine-5′-diphosphocholine], the adverse side effects entry in data set [2] (500 mg per day every morning, first two weeks) is on record as “no adverse side effects”. Besides, the “balance and fatigue on the first two days of increased dosage” value in data set [2] (1000 mg per day (500 mg a.m., 500 mg p.m.)) is “balance had been poor and that their fatigue had increased”. The “fatigue after dosage increase” value in data set [2] (2000 mg per day (1000 mg a.m., 1000 mg p.m.)) was “worsening of fatigue in the morning hours for approximately two days”. The “patients who die (study drop-outs)” value in data set [3] (500 mg citicoline daily for 12 to 18 months, 77 patients, placebo 50%) is given as 20%. The “patients who die (study drop-outs)” value in data set [3] (subjects with early bulbar involvement or the bulbar form of ALS, 500 mg citicoline daily, placebo 65%) came out at 30%. Moreover, in data set [4] (setting [9]), the “Mean Functional Score Day 14” value worked out at 0.43, the “Mean Functional Score Day 15” value came out at 0.41, the “Mean Functional Score Day 16” value is reported as 0.37 and the “Mean Functional Score Day 17” value stood at 0.38. In addition, in data set [4] (setting [9]), the “Mean Functional Score Day 18” value amounted to 0.28, the “Mean Functional Score Day 19” value came out at 0.59, the “Mean Functional Score Day 20” value is on record as 0.68 and the “Mean Functional Score Day 21” value is recorded as 0.87. Moreover, in data set [4] (setting [10]), the “Mean Functional Score Day 14” value is 0.56, the “Mean Functional Score Day 15” value is 0.78, the “Mean Functional Score Day 16” value was determined as 0.84 and the “Mean Functional Score Day 17” value was 0.69. For the same compound, in data set [4] (setting [10]), the “Mean Functional Score Day 18” value came out at 0.62, the “Mean Functional Score Day 19” value is recorded as 0.91, the “Mean Functional Score Day 20” value is listed as 0.75 and the “Mean Functional Score Day 21” value was 0.84. The toxic side effects entry in data set [5] was “no evidence of any significant toxic side effects”. In data set [6], the “side effects of this treatment” value is reported as “insignificant”. Moreover, the patient tolerance entry in data set [7] was “tolerate citicoline well”.
On to `C[C@@H]1C[C@H]2[C@@H]3CCC4=CC(=O)C=C[C@]4(C)[C@@]3(F)[C@@H](O)C[C@]2(C)[C@@]1(O)C(=O)CO` [Dexamethasone], for which, in data set [4] (setting [11]), the “Mean Functional Score Day 14” value worked out at 0.14, the “Mean Functional Score Day 15” value is recorded as 0.42, the “Mean Functional Score Day 16” value was 0.0 and the “Mean Functional Score Day 17” value stood at 0.14. Further, in data set [4] (setting [11]), the “Mean Functional Score Day 18” value is 0.28, the “Mean Functional Score Day 19” value came to 0.64, the “Mean Functional Score Day 20” value is 0.57 and the “Mean Functional Score Day 21” value is 0.64.
With “ACTH: drug often used to treat ALS or MS (SYSMEHFRWGKPVGKKRRPVKVYPNGAEDESAEAFPLEF; Corticotropin; UniProt P01189 138-176, looked up)”, in data set [1] (setting [8]), the “effect of earlier treatment” value is “worked initially”.
